Source: US20070249545A1, “DIHYDROFOLATE REDUCTASE INHIBITION BY EPIGALLOCATECHIN GALLATE COMPOUNDS” (priority 2004, published 2007)

Tested on: Jurkat T
Test: Growth of Jurkat T lymphoma cells
Assay type: cell-based, human
Procedure: To determine whether EGCG inhibits DHFR activity in vivo, two human cancer cell, (Caco-2 from colon cancer and Jurkat T a lymphoma cell line) were incubated with various concentrations of EGCG in a standard medium.

(−)-epigallocatechin gallate [EGCG] was tested, and the apoptosis was “induction of apoptosis”, the cell cycle effect was “G0/G1 phase arrest” and the “effects in HT medium and in the presence of folinic acid or thymine” value was “highly attenuated”. It also gave an IC50 (standard medium, read-out: IC50 of cell growth) of 10 µM.
